Reference: the NIST ThermoML archive (doi:10.1016/j.jct.2019.03.023)
± gives the expanded uncertainty stated by the source.

Assay: molar heat capacity at constant volume
Conditions: Fluid (supercritical or subcritical phases), Vacuum adiabatic calorimetry

CC(C)O [propan-2-ol]
Conditions | molar heat capacity at constant volume [J/K/mol]
509.12 K, Mass density=288.99 kg/m3 | 208.89 ± 6.2
509.12 K, Mass density=293.3 kg/m3 | 205.89 ± 6.2
509.12 K, Mass density=324.5 kg/m3 | 193.27 ± 5.8
509.13 K, Mass density=255.8 kg/m3 | 235.45 ± 7.1
509.21 K, Mass density=234.3 kg/m3 | 205.65 ± 6.2
509.21 K, Mass density=266.3 kg/m3 | 238.7 ± 7.2
509.21 K, Mass density=274 kg/m3 | 233.71 ± 7
509.21 K, Mass density=281.9 kg/m3 | 212.8 ± 6.4
509.22 K, Mass density=293.3 kg/m3 | 199.52 ± 6
509.31 K, Mass density=234.3 kg/m3 | 202.04 ± 6.1
509.31 K, Mass density=255.8 kg/m3 | 218.33 ± 6.6
509.31 K, Mass density=266.3 kg/m3 | 229.68 ± 6.9
509.31 K, Mass density=274 kg/m3 | 224.45 ± 6.7
509.31 K, Mass density=281.9 kg/m3 | 208.17 ± 6.2
509.31 K, Mass density=293.3 kg/m3 | 198.91 ± 5.9
509.35 K, Mass density=329.2 kg/m3 | 179.56 ± 5.4
509.4 K, Mass density=234.3 kg/m3 | 198.61 ± 5.9
509.4 K, Mass density=255.8 kg/m3 | 215.14 ± 6.5
509.4 K, Mass density=274 kg/m3 | 219.83 ± 6.6
509.41 K, Mass density=281.9 kg/m3 | 208.71 ± 6.2
509.41 K, Mass density=293.3 kg/m3 | 198.91 ± 5.9
509.45 K, Mass density=329.2 kg/m3 | 180.16 ± 5.4
509.49 K, Mass density=234.3 kg/m3 | 198.97 ± 5.9
509.49 K, Mass density=255.8 kg/m3 | 213.4 ± 6.4
509.49 K, Mass density=266.3 kg/m3 | 223.31 ± 6.7
509.49 K, Mass density=274 kg/m3 | 219.83 ± 6.6
509.49 K, Mass density=281.9 kg/m3 | 204.98 ± 6.1
509.55 K, Mass density=329.2 kg/m3 | 178.84 ± 5.3
509.59 K, Mass density=234.3 kg/m3 | 196.21 ± 5.9
509.59 K, Mass density=255.8 kg/m3 | 210.09 ± 6.3
509.59 K, Mass density=266.3 kg/m3 | 219.59 ± 6.6
509.59 K, Mass density=274 kg/m3 | 215.2 ± 6.5
509.59 K, Mass density=324.5 kg/m3 | 183.83 ± 5.5
509.64 K, Mass density=329.2 kg/m3 | 179.98 ± 5.4
509.68 K, Mass density=234.3 kg/m3 | 196.87 ± 5.9
509.68 K, Mass density=255.8 kg/m3 | 209.01 ± 6.2
509.68 K, Mass density=266.3 kg/m3 | 217 ± 6.5
509.68 K, Mass density=274 kg/m3 | 213.04 ± 6.4
509.68 K, Mass density=324.5 kg/m3 | 191.16 ± 5.8
509.77 K, Mass density=234.3 kg/m3 | 196.09 ± 5.9
509.77 K, Mass density=255.8 kg/m3 | 206.37 ± 6.2
509.77 K, Mass density=266.3 kg/m3 | 209.67 ± 6.3
509.77 K, Mass density=274 kg/m3 | 213.04 ± 6.4
509.77 K, Mass density=324.5 kg/m3 | 189.06 ± 5.6
509.79 K, Mass density=329.2 kg/m3 | 177.46 ± 5.3
509.86 K, Mass density=234.3 kg/m3 | 195.79 ± 5.9
509.86 K, Mass density=255.8 kg/m3 | 204.2 ± 6.1
509.86 K, Mass density=266.3 kg/m3 | 209.67 ± 6.3
509.86 K, Mass density=274 kg/m3 | 208.41 ± 6.2
509.86 K, Mass density=293.3 kg/m3 | 194.17 ± 5.8
509.87 K, Mass density=324.5 kg/m3 | 183.23 ± 5.5
509.96 K, Mass density=255.8 kg/m3 | 202.1 ± 6.1
509.96 K, Mass density=266.3 kg/m3 | 209.67 ± 6.3
509.96 K, Mass density=274 kg/m3 | 204.8 ± 6.1
509.96 K, Mass density=281.9 kg/m3 | 202.4 ± 6.1
509.96 K, Mass density=293.3 kg/m3 | 192.18 ± 5.8
509.96 K, Mass density=324.5 kg/m3 | 187.5 ± 5.6
509.99 K, Mass density=329.2 kg/m3 | 177.28 ± 5.3
510.05 K, Mass density=255.8 kg/m3 | 200 ± 6
510.05 K, Mass density=266.3 kg/m3 | 209.73 ± 6.3
510.05 K, Mass density=274 kg/m3 | 203.84 ± 6.1
510.05 K, Mass density=281.9 kg/m3 | 206.97 ± 6.2
510.05 K, Mass density=293.3 kg/m3 | 195.37 ± 5.9
510.05 K, Mass density=324.5 kg/m3 | 181.31 ± 5.5
510.05 K, Mass density=343.1 kg/m3 | 174.7 ± 5.2
510.14 K, Mass density=255.8 kg/m3 | 198.91 ± 5.9
510.14 K, Mass density=266.3 kg/m3 | 211.53 ± 6.4
510.14 K, Mass density=274 kg/m3 | 203.36 ± 6.1
510.14 K, Mass density=281.9 kg/m3 | 197.95 ± 5.9
510.14 K, Mass density=293.3 kg/m3 | 191.4 ± 5.8
510.14 K, Mass density=324.5 kg/m3 | 187.92 ± 5.6
510.14 K, Mass density=329.2 kg/m3 | 178.12 ± 5.3
510.14 K, Mass density=343.1 kg/m3 | 178.42 ± 5.3
510.23 K, Mass density=329.2 kg/m3 | 177.94 ± 5.3
510.24 K, Mass density=274 kg/m3 | 204.02 ± 6.1
510.24 K, Mass density=281.9 kg/m3 | 197.95 ± 5.9
510.24 K, Mass density=293.3 kg/m3 | 198.43 ± 5.9
510.24 K, Mass density=324.5 kg/m3 | 181.85 ± 5.5
510.24 K, Mass density=343.1 kg/m3 | 185.87 ± 5.6
510.33 K, Mass density=274 kg/m3 | 202.52 ± 6.1
510.33 K, Mass density=281.9 kg/m3 | 193.45 ± 5.8
510.33 K, Mass density=293.3 kg/m3 | 191.1 ± 5.8
510.33 K, Mass density=324.5 kg/m3 | 181.73 ± 5.5
510.33 K, Mass density=329.2 kg/m3 | 176.68 ± 5.3
510.33 K, Mass density=343.1 kg/m3 | 182.15 ± 5.5
510.42 K, Mass density=274 kg/m3 | 204.68 ± 6.1
510.42 K, Mass density=281.9 kg/m3 | 198.01 ± 5.9
510.42 K, Mass density=293.3 kg/m3 | 187.02 ± 5.6
510.42 K, Mass density=324.5 kg/m3 | 183.05 ± 5.5
510.42 K, Mass density=343.1 kg/m3 | 178.48 ± 5.3
510.48 K, Mass density=329.2 kg/m3 | 178.6 ± 5.3
510.51 K, Mass density=281.9 kg/m3 | 193.69 ± 5.8
